From patent publication US5519051A, “Oxa- or azasteroid derivatives” (Teikoku Hormone Mfg. Co., Ltd., priority 1991, dated 1996)

Each compound was assayed against T1, aromatase (Homo sapiens, UniProt P11511) (assay: aromatase inhibition action (3H2O liberated by aromatization of [1,2-3H] androstenedione, human placental microsome)). Settings: freeze-dried human placental microsome 150 μg; 2 μM [1,2-3H] androstenedione; 180 μM NADPH; pH 7.5; 37° C., 20 minutes.
T1 construct: human placental microsome (one obtained by centrifugation at 105,000); from tissue; host or cells: human placenta, microsomes (washed with dithiothreitol, freeze-dried)
T1 sequence (P11511 1-503): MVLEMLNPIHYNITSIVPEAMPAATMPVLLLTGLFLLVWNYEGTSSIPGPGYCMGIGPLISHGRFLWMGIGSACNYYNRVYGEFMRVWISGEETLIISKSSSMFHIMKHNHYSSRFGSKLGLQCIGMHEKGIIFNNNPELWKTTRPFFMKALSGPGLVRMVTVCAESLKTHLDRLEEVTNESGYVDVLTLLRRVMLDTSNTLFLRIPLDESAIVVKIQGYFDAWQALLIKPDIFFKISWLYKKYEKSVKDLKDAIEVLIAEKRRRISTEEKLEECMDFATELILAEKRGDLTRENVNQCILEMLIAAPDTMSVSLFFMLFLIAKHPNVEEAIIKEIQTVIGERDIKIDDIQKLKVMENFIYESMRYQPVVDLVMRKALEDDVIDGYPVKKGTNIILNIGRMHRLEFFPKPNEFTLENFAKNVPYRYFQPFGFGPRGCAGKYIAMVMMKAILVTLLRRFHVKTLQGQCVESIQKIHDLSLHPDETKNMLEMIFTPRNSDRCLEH
Assay type: biochemical
Procedure: (1) Assay of aromatase inhibition action
According to the method of Ryan (The Journal of Biological Chemistry, 234, 268-272, 1959), human placental microsome (one obtained by centrifugation at 105,000 × g for 60 minutes) was prepared. A microsome was used after being washed twice with 0.5 mM dithiothreitol solution, freeze-driedand stored at -20° C.
Aromatase inhibition action was assayed according to the method developed by Tompson and Siiteri (The Journal of Biological Chemistry, 249, 5373-5378, 1974). The method is to determine the amount of ^3 H2 O liberated by aromatization of [1,2-^3 H] androstenedione. The experiment using the enzyme is carried out in 67 mM phosphate buffer of pH 7.5 so that the amount of the last incubation liquid gets to be 0.5 mi. The incubation liquid contains 180 μM NADPH, 2 μM [1,2-^3 H] androstenedione, 150 μg of the freeze-dried human placental microsome, 25 μl of methanol and a test compound in various concentrations. The incubation is carried out in the air at 37° C. for 20 minutes, 3 ml of chloroform is added to finish the reaction, and then the mixture is stirred for 40 seconds. Then, centrifugation is conducted at 700 × g for 10 minutes, 0.3 ml of the aqueous solution is removed from the supernatant, the scintillation mixture is added, and the amount of ^3 H2 O formed is determined

SMILES | IC50 [nM]
C[C@]12CCCC=C1CC[C@@H]1[C@@H]2CC[C@]2(C)C(=O)OC[C@@H]12 [Example 3, 16-oxaandrost-4-en-17-one] | 1200
C[C@]12CCCC=C1CC[C@@H]1[C@@H]2CC[C@]2(C)C(=O)OCC[C@@H]12 [Example 25, D-homo-17-oxaandrost-4-en-17a-one] | 730
C[C@]12CCCC=C1[C@@H]1[C@H]([C@@H]3[C@@H]2CC[C@]2(C)C(=O)OCC[C@@H]32)C1(F)F [Example 28, 6α,7α-difluoromethylene-D-homo-17-oxaandrost-4-en-17a-one] | 1300
C[C@]12CCC(=O)C(O)=C1CC[C@@H]1[C@@H]2CC[C@]2(C)C(=O)OCC[C@@H]12 [Example 31, 4-hydroxy-D-homo-17-oxaandrost-4-ene-3,17a-dione] | 600
C=C1C[C@@H]2[C@H](CC[C@]3(C)C(=O)OCC[C@@H]23)[C@@]2(C)C=CC(=O)C=C12 [Example 36, 6-methylene-17-oxa-D-homoandrosta-1,4-diene-3,17a-dione] | 2100
C[C@]12CC[C@H]3[C@@H](CC(=O)C4=CC(=O)CC[C@@]43C)[C@@H]1CCOC2 [Example 50, D-homo-17-oxaandrost-4-ene-3,6-dione] | 2700
C[C@]12CC[C@H]3[C@@H](C=CC4=CC(=O)C=C[C@@]43C)[C@@H]1CCOC2 [Example 51, D-homo-17-oxaandrosta-1,4,6-trien-3-one] | 2900
C[C@]12CC[C@H]3[C@@H](CCC4=C(O)C(=O)CC[C@@]43C)[C@@H]1CCOC2 [Example 56, 4-hydroxy-D-homo-17-oxaandrost-4-en-3-one] | 1900
